{"source": "patent US10010541B2", "about": "“Modulation of tissue transglutaminase activation in disease” (The Board of Trustees of the Leland Stanford Junior …, priority 2014, dated 2018)", "key": {"[1]": {"test_system": "proinflammatory cytokines IL-6, PAI-1 and MIP1α", "test": "circulating proinflammatory cytokines in LPS-induced murine sepsis (ELISA)", "format": "in vivo, mice", "details": "septic mice (LPS 5 mg/kg iv); 1.5 mg/kg ip level; plasma at 3 hours", "method": "FIG. 3: The TG2 inhibitor CK996 reduces the proinflammatory cytokine load in septic mice at doses as low as 1.5 mg/kg: The graphs display the absolute circulating levels of the proinflammatory cytokines IL-6, PAI-1 and MIP1α in septic male BL6 mice as a function of the dose of intraperitoneally administered CK996 or ERW1041E. In each graph, the right y-axis depicts the relative levels of the respective cytokines over their background level in our control cohort. All septic mice in this study received lipopolysaccharide (LPS, 5 mg/kg i.v., at t=0) and either a TG2 inhibitor (CK996 or ERW1041E at 50, 15, 5.0 and 1.5 mg/kg i.p., at t=0 and 60 min) in vehicle (PBS with 5% DMSO, 2% Tween-80 and 2.5% hydroxypropyl-beta-cyclodextrin) or, for the septic control cohort, vehicle alone. An additional cohort defining the baseline cytokine levels received only intravenous vehicle and intraperitoneal inhibitor vehicle, respectively. At 3 hours the mice were euthanized and plasma collected in lithium heparin tubes. The levels of the respective proinflammatory cytokines were quantified using commercial ELISA kits according to the manufacturers' instructions. […]\nHaving established that intraperitoneal administration of CK996 could suppress TG2 activity in septic mice, we next sought to determine whether this pharmacologic intervention had any effect on the circulating levels of the key proinflammatory cytokines in sepsis. To this end, we administered CK996 in doses of 1.5, 5.0, 15 or 50 mg/kg intraperitoneally to septic mice (5 mg/kg LPS, iv) and measured the level of the proinflammatory cytokines IL-6, PAI-1 and MIP1α in plasma that was collected at 3 hours after infusion of LPS.\nWe therefore co-administered recombinant human thioredoxin protein (10 mg/kg, ip) along with CK996 (50 mg/kg, ip) to septic mice (5 mg/kg, iv) and quantified the load of proinflammatory cytokines as above."}, "TG2 [2]": {"biological_target": "T1, TG2 (Homo sapiens, UniProt P21980)", "T1 sequence (P21980 1-687)": "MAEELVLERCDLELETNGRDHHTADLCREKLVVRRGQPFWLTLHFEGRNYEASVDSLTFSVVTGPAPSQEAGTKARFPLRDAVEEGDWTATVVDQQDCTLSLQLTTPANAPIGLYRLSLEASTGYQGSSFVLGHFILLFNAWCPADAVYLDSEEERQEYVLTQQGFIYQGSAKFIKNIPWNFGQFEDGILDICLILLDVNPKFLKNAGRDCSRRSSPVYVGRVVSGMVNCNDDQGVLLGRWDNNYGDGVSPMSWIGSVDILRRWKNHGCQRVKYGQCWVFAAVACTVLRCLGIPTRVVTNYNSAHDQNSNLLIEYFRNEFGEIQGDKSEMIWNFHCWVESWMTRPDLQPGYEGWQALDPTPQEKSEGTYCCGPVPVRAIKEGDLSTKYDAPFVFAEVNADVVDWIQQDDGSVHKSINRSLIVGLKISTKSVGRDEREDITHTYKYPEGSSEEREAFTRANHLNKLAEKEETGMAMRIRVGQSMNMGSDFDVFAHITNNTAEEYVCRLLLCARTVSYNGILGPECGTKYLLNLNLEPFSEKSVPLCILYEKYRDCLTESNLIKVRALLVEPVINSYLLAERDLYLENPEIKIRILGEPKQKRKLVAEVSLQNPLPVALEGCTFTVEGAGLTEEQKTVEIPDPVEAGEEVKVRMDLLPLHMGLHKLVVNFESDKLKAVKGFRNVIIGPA", "details": "cited from earlier work"}, "TG1": {"biological_target": "T2, TG1 (Homo sapiens, UniProt P22735)", "T2 sequence (P22735 1-817)": "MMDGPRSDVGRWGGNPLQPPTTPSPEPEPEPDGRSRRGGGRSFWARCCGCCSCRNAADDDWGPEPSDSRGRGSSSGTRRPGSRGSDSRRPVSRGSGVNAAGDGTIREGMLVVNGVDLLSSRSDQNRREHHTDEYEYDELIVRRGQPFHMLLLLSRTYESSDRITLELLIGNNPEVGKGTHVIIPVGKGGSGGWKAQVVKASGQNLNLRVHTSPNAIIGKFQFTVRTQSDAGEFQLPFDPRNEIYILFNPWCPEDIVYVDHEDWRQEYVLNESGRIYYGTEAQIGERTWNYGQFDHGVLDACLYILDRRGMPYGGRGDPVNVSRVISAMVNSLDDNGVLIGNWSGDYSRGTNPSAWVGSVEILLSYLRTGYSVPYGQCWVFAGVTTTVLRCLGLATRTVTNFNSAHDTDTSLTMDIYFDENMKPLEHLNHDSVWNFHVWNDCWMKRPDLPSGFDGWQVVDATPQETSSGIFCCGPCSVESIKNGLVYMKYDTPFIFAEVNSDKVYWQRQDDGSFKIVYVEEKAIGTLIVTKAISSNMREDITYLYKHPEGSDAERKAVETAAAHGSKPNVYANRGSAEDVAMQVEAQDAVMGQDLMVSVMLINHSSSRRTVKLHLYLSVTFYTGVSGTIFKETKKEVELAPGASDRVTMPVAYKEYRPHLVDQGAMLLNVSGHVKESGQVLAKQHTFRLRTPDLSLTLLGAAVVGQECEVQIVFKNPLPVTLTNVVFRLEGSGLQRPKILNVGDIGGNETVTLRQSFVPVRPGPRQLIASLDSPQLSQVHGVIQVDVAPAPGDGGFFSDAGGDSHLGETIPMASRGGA", "details": "cited from earlier work"}, "TG2 [3]": {"biological_target": "T1, TG2", "details": "cell culture; cited from earlier work"}, "TG2 [4]": {"biological_target": "T3, TG2 (Mus musculus, UniProt P21981)", "T3 construct": "host or cells: mice (in vivo)", "T3 sequence (P21981 1-686)": "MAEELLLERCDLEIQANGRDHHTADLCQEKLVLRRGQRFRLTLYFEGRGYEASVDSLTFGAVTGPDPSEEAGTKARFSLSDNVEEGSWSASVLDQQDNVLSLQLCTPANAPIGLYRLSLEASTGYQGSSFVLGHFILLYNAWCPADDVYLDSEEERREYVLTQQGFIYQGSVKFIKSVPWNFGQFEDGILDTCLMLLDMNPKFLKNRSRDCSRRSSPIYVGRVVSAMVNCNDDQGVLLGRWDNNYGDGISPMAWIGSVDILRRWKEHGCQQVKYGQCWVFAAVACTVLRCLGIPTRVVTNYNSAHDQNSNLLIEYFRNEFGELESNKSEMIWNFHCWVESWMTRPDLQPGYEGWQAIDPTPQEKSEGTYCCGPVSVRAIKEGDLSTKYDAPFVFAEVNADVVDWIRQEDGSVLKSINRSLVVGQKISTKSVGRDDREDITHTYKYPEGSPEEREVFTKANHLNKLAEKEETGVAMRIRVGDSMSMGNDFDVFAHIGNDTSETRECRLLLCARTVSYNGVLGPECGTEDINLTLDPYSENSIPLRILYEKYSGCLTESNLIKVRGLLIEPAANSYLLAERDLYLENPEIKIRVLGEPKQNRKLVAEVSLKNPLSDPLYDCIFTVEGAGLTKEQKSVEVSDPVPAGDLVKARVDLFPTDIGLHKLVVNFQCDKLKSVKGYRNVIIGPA", "details": "poly-I:C induced intestinal injury in mice; cited from earlier work"}, "TG2 [5]": {"biological_target": "T3, TG2", "details": "cited from earlier work"}}, "note": "Where two headings read alike, the source gives them in different places.", "data": [{"molecule": "O=C(NC[C@@H]1CC(Br)=NO1)[C@@H]1CCCN1C(=O)OCc1cnc2ccccc2c1", "note": "[ERW1041E]", "values": [{"measurement": "circulating levels of IL-6, PAI-1 and MIP1α", "setting": "[1]", "result": "no effect"}, {"measurement": "potency as inhibitor of TG2", "setting": "TG2 [2]", "result": "moderately potent"}, {"measurement": "potency against TG1 relative to TG2", "setting": "TG1", "result": "comparably potent"}, {"measurement": "catalytic activity of TG2", "setting": "TG2 [3]", "result": "capable of blocking the catalytic activity of TG2"}, {"measurement": "catalytic activity of TG2", "setting": "TG2 [4]", "result": "capable of blocking the catalytic activity of TG2"}, {"measurement": "catalytic activity of TG2", "setting": "TG2 [5]; hypoxia-induced murine pulmonary hypertension", "result": "capable of blocking the catalytic activity of TG2"}, {"measurement": "tolerability", "setting": "TG2 [5]; twice daily administration for several weeks", "result": "well tolerated"}]}]}
